The source of these data is patent US20110263608A1, “16-KETO ASPERGILLIMIDES AND HARMFUL ORGANISM CONTROL AGENT COMPRISING THE SAME AS ACTIVE INGREDIENT” (Meiji Seika Pharma Co., Ltd., priority 2008, published 2011).

Common to all, as to format: in vivo
In one data set the test system is Aphis gossypii. The experiment in a line: Insecticidal effect against Aphis gossypii (cucumber leaf disk). Conditions: foliar, 72 h, read-out: insecticidal activity (death rate). The protocol: A leaf disk having a diameter of 2.0 cm was cut out from a cucumber in pot culture, and test solutions adjusted to a 200 ppm concentration (50% aqueous acetone solution; 0.05% Tween 20 added) were applied to the leaf disk. The leaf disk was then air dried, and first instar larvae were released and were then allowed to stand in a humidistat chamber (light period 16 hr—dark period 8 hr) (25° C.). […] The test was duplicated.
(§1) Death rate (%)={number of dead larvae/(number of survived larvae+number of dead larvae)}×100

The subject of data set [1] is Haemaphysalis longicornis. Description: Tickcidal effect against Haemaphysalis longicornis (dry film in glass vial). The conditions noted are these: 24 h, read-out: Death rate after one day. On the procedure:
Acetone solution (30 μl) of 200 ppm of compounds 1 to 9 and 20 ppm of compounds A and B was placed in 4 mL-volume glass vials. The vials were placed on a shaker, and a dry film of the compound was formed on the inner wall of the vials. The vials were dried for 24 hr or longer. Larva ticks of Haemaphysalis longicornis (10 heads) were released in the vials, and the vials were lidded.
as §1

The next data set deals with Laodelphax striatellus. The experiment in a line: Insecticidal effect against Laodelphax striatellus (root absorption, wheat seedlings). Conditions: 72 h, read-out: insecticidal activity (death rate). On the procedure: A test solution (200 μl) adjusted to a 100 ppm concentration (10% aqueous acetone solution) was applied to the root of wheat seedlings in water culture. After the absorption of the test solution from the root for 3 days, 10 second instar larvae of Laodelphax striatellus were released, and the wheat seedlings were then allowed to stand in a humidistat chamber (light period 16 hr—dark period 8 hr) (25° C.). […] The test was duplicated.
as §1

In data set [2] the test system is Frankliniella occidentalis. The experiment in a line: Insecticidal effect against Frankliniella occidentalis (kidney bean leaf disk). Conditions: 100 ppm, first instar larvae, six days after release. On the procedure: A leaf disk having a diameter of 2.8 cm was cut out from kidney bean in pot culture, and a test solutions adjusted to a 100 ppm concentration (50% aqueous acetone solution; 0.05% Tween 20 added) were applied to the leaf disk. The leaf disk was then air dried, and first instar larvae were released and were then allowed to stand in a humidistat chamber (light period 16 hr—dark period 8 hr) (25° C.). […] The test was duplicated. Death rate (%)={number of dead larvae/(number of survived larvae+number of dead larvae)}×100

The next data set deals with Ctenocephalides felis. Description: Fleacidal effect against Ctenocephalides felis (treated filter paper). The conditions noted are these: 6.3 ppm acetone solution (200 μL) on filter paper, adults. The protocol:
Acetone solution (200 μL) of 6.3 ppm of compound A was dropped on a filter paper having a diameter of 4.0 cm, and the filter paper was air-dried at room temperature to evaporate acetone. The chemical compound-treated filter paper was tightly fitted into a lid (diameter: 3.7 cm) for a 200-mL vial. About 25 adults of Ctenocephalides felis one to 3 days after adult eclosion were released in the 200 mL-volume vial, and the vial was then sealed by the vial lid with the chemical compound-treated filter paper fitted thereinto. The vial was inverted so that Ctenocephalides felis came into contact with the filter paper and, in this state, was left to stand. […] The test was triplicated.
as §1

Data set [3] deals with Haemaphysalis longicornis. The experiment in a line: Tickcidal effect against Haemaphysalis longicornis on body surface of mouse. Conditions: larvae.
Text: Skin hair on the back of mice (ICR, male, 5 week olds) was clipped in a diameter of about 2 cm, and a 15-mL polystyrene conical tube cut to have a height of about 1.5 cm was bonded to the body surface of the mice with an instant adhesive.
as §1

A short description of data set [4]: Single oral administration acute toxicity against rat. The conditions noted are these: female, Jcl: Wistar, in vivo, 2000 mg/kg, single oral administration. The protocol:
(§2) Compound A was suspended at a concentration of 100 mg/mL using 0.5% methylcellulose. The test solution was forcibly orally administered to rats (Jcl: Wistar, female, 8 week olds) with a tube and a disposable syringe. The dose was 2000 mg/kg. […]

The test system of data set [5] is rats (Jcl: Wistar, female). The data set is described as above. The conditions noted are these: single oral dose 2000 mg/kg, 15 days. The protocol: as §2
The mark [6] stands for this setting: 200 ppm, first instar larvae, three days after release.
Where [7] appears, read: 200 ppm acetone solution (30 μl), dry film, larva ticks, 25 C.
Where [8] appears, read: 100 ppm (200 μl) to root, second instar larvae, three days after release.

Like-named read-outs stand apart in the source and are kept apart here.

Consider `C[C@H]1CC(=O)N2C[C@]34C[C@]5(C[C@@H](O)N(C)C5=O)C(C)(C)[C@H]3C[C@]12C(=O)N4C` [Compound 1], for which, in the data set with Aphis gossypii, the pest or weed control at 200 ppm was at least 80%. Moreover, the pest or weed control at 200 µg/mL in data set [1] is 80%. In addition, in the data set with Laodelphax striatellus, the pest or weed control at 100 ppm was 100%.

As for `CC(=O)O[C@@H]1C[C@]2(C[C@@]34CN5C(=O)C[C@H](C)[C@]5(C[C@@H]3C2(C)C)C(=O)N4C)C(=O)N1C` [Compound 2], the pest or weed control at 200 ppm with Aphis gossypii (setting [6]) was at least 80%. The pest or weed control at 200 µg/mL in data set [1] (setting [7]) amounted to 100%. For the same molecule, in the data set with Laodelphax striatellus (setting [8]), the pest or weed control at 100 ppm was 100%.

Take `C[C@H]1CC(=O)N2C[C@]34C[C@]5(C=CN(C)C5=O)C(C)(C)[C@@H]3C[C@]12C(=O)N4C` [Compound 3]: in the data set with Aphis gossypii, the pest or weed control at 200 ppm is at least 80%. Further, the pest or weed control at 200 µg/mL in data set [1] worked out at 80%. In the data set with Laodelphax striatellus, the pest or weed control at 100 ppm was found to be 100%.

As for `C[C@H]1CC(=O)N2C[C@]34C[C@]5(CCN(C)C5=O)C(C)(C)[C@@H]3C[C@]12C(=O)N4C` [Compound 4], in the data set on Aphis gossypii, the pest or weed control at 200 ppm was at least 80%. In addition, the pest or weed control at 200 µg/mL in data set [1] turned out to be 100%. In the data set on Laodelphax striatellus, the pest or weed control at 100 ppm stood at 100%.

In the case of `C[C@H]1CC(=O)N2C[C@@]34C[C@@]5(C(=O)N(C)C=C5C5C[C@]6(C[C@]78CN9C(=O)C[C@H](C)[C@@]9(C[C@H]7C6(C)C)C(=O)N8C)C(=O)N5C)C(C)(C)[C@@H]3C[C@]12C(=O)N4C` (some centres unmarked) [Compound 5], the pest or weed control at 200 ppm with Aphis gossypii was at least 80%.

Take `C[C@H]1CC(=O)N2C[C@]34C[C@@]5(C(=O)N(C)C6OC65)C(C)(C)[C@@H]3C[C@]12C(=O)N4C` (some centres unmarked) [Compound 6]: the pest or weed control at 200 ppm in the data set on Aphis gossypii was at least 80%. Moreover, the pest or weed control at 200 µg/mL in data set [1] stood at 100%. Further, in the data set on Laodelphax striatellus, the pest or weed control at 100 ppm amounted to 100%.

For `C[C@H]1CC(=O)N2C[C@]34C[C@@]5(C(=O)N(C)C(=O)C5O)C(C)(C)[C@@H]3C[C@]12C(=O)N4C` (some centres unmarked) [Compound 7], the pest or weed control at 200 ppm in the data set with Aphis gossypii (setting [6]) was at least 80%. In addition, the pest or weed control at 200 µg/mL in data set [1] (setting [7]) was determined as 100%. The pest or weed control at 100 ppm in the data set with Laodelphax striatellus (setting [8]) was found to be 100%.

For `COC1C[C@]2(C[C@@]34CN5C(=O)C[C@H](C)[C@]5(C[C@@H]3C2(C)C)C(=O)N4C)C(=O)N1C` (some centres unmarked) [Compound 8], the pest or weed control at 200 ppm in the data set on Aphis gossypii (setting [6]) is at least 80%. Moreover, the pest or weed control at 200 µg/mL in data set [1] (setting [7]) was found to be 100%. For the same molecule, the pest or weed control at 100 ppm with Laodelphax striatellus (setting [8]) came to 100%. For the same molecule, the “insecticidal activity (death rate)” value in data set [2] was “not less than 80%”.

On to `C[C@H]1CC(=O)N2C[C@]34C[C@]5(CC(OCc6ccccc6)N(C)C5=O)C(C)(C)[C@@H]3C[C@]12C(=O)N4C` (some centres unmarked) [Compound 9], for which the pest or weed control at 200 ppm with Aphis gossypii (setting [6]) was at least 80%. In data set [1] (setting [7]), the pest or weed control at 200 µg/mL amounted to 100%. The pest or weed control at 100 ppm in the data set on Laodelphax striatellus (setting [8]) turned out to be 100%.

Turning to `C[C@H]1CC(=O)N2C[C@]34C[C@@]5(C(=O)N(C)C(=O)C5Cc5ccccc5)C(C)(C)[C@@H]3C[C@]12C(=O)N4C` (some centres unmarked) [Compound 10], the pest or weed control at 200 ppm in the data set on Aphis gossypii (setting [6]) is at least 80%.

The term LD50 denotes the dose expected to kill half of the subjects tested. A higher LD50 goes with a less toxic substance. As for `C[C@H]1CC(=O)N2C[C@]34C[C@]5(CC(=O)N(C)C5=O)C(C)(C)[C@@H]3C[C@]12C(=O)N4C` [Compound A, 16-keto aspergillimide], the “Death rate after three days” value is 73% in the data set with Ctenocephalides felis, 60% in data set [3] (dose 2 μg/2 cm^2 on mouse body surface), 93% in data set [3] (dose 6 μg/2 cm^2 on mouse body surface) and 100% in data set [3] (dose 10 μg/2 cm^2 on mouse body surface). In data set [4], this molecule registered an LD50 at 15 days of at least 2000 mg/kg. In addition, the “Cumulative number of dead rats 15 days after administration (number of death/total number of rats tested)” value in data set [5] is given as 0/3. In addition, the pest or weed control at 20 µg/mL in data set [1] stood at 100%.

Consider `C[C@H]1CCN2C[C@]34C[C@]5(CC(=O)N(C)C5=O)C(C)(C)[C@@H]3C[C@]12C(=O)N4C` [Compound B, asperparaline A], for which the pest or weed control at 20 µg/mL in data set [1] (20 ppm acetone solution (30 μl), dry film, larva ticks, 25 C) came to 100%.
